Measurements from PubChem BioAssay AID2060909 (Molecular Pharmacology Branch, DTP, NCI, 2025).

System: 362531-283-R-J2-PDC complex spheroid viability
Experiment: Anticancer human tumor 362531-283-R-J2-PDC patient-derived colon adenocarcinoma cell line growth inhibition [RAS]
Conditions: for IC50: curve of first compound; for viability, T/C: stronger effect = lower value; active means viability on the fitted dose curve at most 10% of control; inactive means the rest
In short: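 Tumour cells grown as complex spheroids with HUVEC endothelial cells and mesenchymal stem cells, treated with RAS pathway inhibitor combinations. Each agent spans half-log steps from near clinical Cmax, or 10 microM where Cmax is unknown.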
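Further: spheroids exposed to the agents for 7 days before readout.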
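Wherever viability, T/C is given: luminescence viability as percent of DMSO vehicle control wells.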

CC(C)NCC(C(=O)N1CCN(c2ncnc3c2C(C)CC3O)CC1)c1ccc(Cl)cc1 (configuration not stated) + CCn1c(-c2cccnc2C(C)OC)c2c3cc(ccc31)N1CCOC(CC(NC(=O)C(C(C)C)N(C)C(=O)C3(F)CCN(C(=O)C#CC(C)(C)N(C)C)CC3)C(=O)N3CCCC(N3)C(=O)OCC(C)(C)C2)C1
> 10 µM: IC50 (second compound 0.000949 µM) | IC50 (second compound 0.003 µM) | IC50 (second compound 0.00949 µM) | IC50 (second compound 0.03 µM) | IC50 (second compound 0.0949 µM) | IC50 (second compound 0.3 µM)
inactive: viability, T/C (second compound 0.000949 µM, first compound 0.0316 µM) 97.8% | viability, T/C (second compound 0.000949 µM, first compound 0.1 µM) 106% | viability, T/C (second compound 0.000949 µM, first compound 0.316 µM) 91.4% | viability, T/C (second compound 0.000949 µM, first compound 1 µM) 94.4% | viability, T/C (second compound 0.000949 µM, first compound 3.16 µM) 101% | viability, T/C (second compound 0.000949 µM, first compound 10 µM) 93.5% | viability, T/C (second compound 0.003 µM, first compound 0.0316 µM) 103% | viability, T/C (second compound 0.003 µM, first compound 0.1 µM) 105% | viability, T/C (second compound 0.003 µM, first compound 0.316 µM) 94.4% | viability, T/C (second compound 0.003 µM, first compound 1 µM) 92.9% | viability, T/C (second compound 0.003 µM, first compound 3.16 µM) 94.1% | viability, T/C (second compound 0.003 µM, first compound 10 µM) 101% | viability, T/C (second compound 0.00949 µM, first compound 0.0316 µM) 92.9% | viability, T/C (second compound 0.00949 µM, first compound 0.1 µM) 100% | viability, T/C (second compound 0.00949 µM, first compound 0.316 µM) 95% | viability, T/C (second compound 0.00949 µM, first compound 1 µM) 98.8% | viability, T/C (second compound 0.00949 µM, first compound 3.16 µM) 98.3% | viability, T/C (second compound 0.00949 µM, first compound 10 µM) 99% | viability, T/C (second compound 0.03 µM, first compound 0.0316 µM) 104% | viability, T/C (second compound 0.03 µM, first compound 0.1 µM) 87.4% | viability, T/C (second compound 0.03 µM, first compound 0.316 µM) 96.7% | viability, T/C (second compound 0.03 µM, first compound 1 µM) 86.2% | viability, T/C (second compound 0.03 µM, first compound 3.16 µM) 97.3% | viability, T/C (second compound 0.03 µM, first compound 10 µM) 100% | viability, T/C (second compound 0.0949 µM, first compound 0.0316 µM) 92.2% | viability, T/C (second compound 0.0949 µM, first compound 0.1 µM) 91.1% | viability, T/C (second compound 0.0949 µM, first compound 0.316 µM) 103% | viability, T/C (second compound 0.0949 µM, first compound 1 µM) 88.1% | viability, T/C (second compound 0.0949 µM, first compound 3.16 µM) 94.9% | viability, T/C (second compound 0.0949 µM, first compound 10 µM) 94.3% | viability, T/C (second compound 0.3 µM, first compound 0.0316 µM) 90.8% | viability, T/C (second compound 0.3 µM, first compound 0.1 µM) 94.1% | viability, T/C (second compound 0.3 µM, first compound 0.316 µM) 97.8% | viability, T/C (second compound 0.3 µM, first compound 1 µM) 91.9% | viability, T/C (second compound 0.3 µM, first compound 3.16 µM) 98.9% | viability, T/C (second compound 0.3 µM, first compound 10 µM) 92%
